Values of other authors in US20190320698A1, “HYDROLYZED PECTIN AND USEOF THE SAME” (International Flavors & Fragrances Inc., priority 2018, published 2019).
One block for each molecule: values may come before it.

Conditions: approximate values

Water Solubility (g/L, approx.): ~6 g/L
SMILES: CCCC(=O)OCC [ethyl butyrate]

Water Solubility (g/L, approx.): ~14 g/L
SMILES: CCOC(=O)CC [ethyl propionate]

Second part, the molecule before the results:

SMILES: CSC [dimethyl sulfide]
Water Solubility (g/L, approx.): Insoluble

SMILES: CCOC(C)=O [ethyl acetate]
Water Solubility (g/L, approx.): ~90 g/L

SMILES: CCCC(=O)OC [methyl butyrate]
Water Solubility (g/L, approx.): ~15 g/L
